Assay results taken from the METLIN SMRT retention time set (Domingo-Almenara et al. 2019).

Experiment: gradient 5% acetonitrile 3 min, to 50% in 2 min, to 85% in 15 min, held 3 min, 100 µL/min
Conditions: column: Zorbax Extend-C18 2.1 x 50 mm; eluents: water / acetonitrile, 0.1% formic acid
In short: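 The mobile phases were water and acetonitrile, each with 0.1% formic acid, pumped at 100 μL/min through a Zorbax Extend-C18 column (2.1 × 50 mm, 1.8 μm). Pure standards were injected as mixtures of ~100 molecules and detected by a quadrupole time-of-flight mass spectrometer in positive and negative ionization mode. Retention time came from computationally picked adduct peaks, each inspected by hand.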

Row | Compound | RP-LC retention time [s]
1 | Cc1noc(C)c1S(=O)(=O)N1CCC(c2noc(COCC3CC3)n2)CC1 | 931
2 | COc1cc(N2C(=O)CC(N3CCC(C(N)=O)CC3)C2=O)cc(OC)c1OC (configuration not stated) | 563
3 | O=C(C1CCCN(c2ncnc3c2nc2n3CCCCC2)C1)N1CCCCC1 (configuration not stated) | 713
4 | Cc1onc(-c2ccccn2)c1C(=O)NCCc1c[nH]c2ccc(Cl)cc12 | 1000
5 | CCn1c(C(=O)N2CCN(c3cccc(C)c3C)CC2)cc2sccc21 | 1070
6 | CC(O)(CNC(=O)C(=O)NCCC1=CCCCC1)c1cccs1 (configuration not stated) | 1120
7 | CC(C)n1cc(S(=O)(=O)Nc2ccc(Cl)cc2)c2cccnc21 | 862
8 | CCCN1C(=O)COc2ccc(-c3noc(Cc4ccc(OC)cc4)n3)cc21 | 1080
9 | COc1ccc(CCC(=O)N2CCC3(C2)C(=O)Nc2ccc(OC)cc23)cc1 (configuration not stated) | 751
10 | Cc1cccc(C)c1OCC(O)Cn1c(C2CC(=O)N(Cc3ccccc3)C2)nc2ccccc21 (configuration not stated) | 834
11 | C/C(=N\NC(N)=O)c1ccc(Cl)c(-n2cccc2)c1 | 855
12 | Cn1cc(C2=CCN(S(=O)(=O)c3cccc(C(F)(F)F)c3)CC2)c2cccnc21 | 1050
13 | COc1ccc(NC(=O)C(C)C2CCN(C(=O)Nc3ccc(Cl)cc3)CC2)cc1 (configuration not stated) | 854
14 | CCOc1ccc(N2CC(NC(=O)N3CCN(C(=O)c4ccco4)CC3)CC2=O)cc1 (configuration not stated) | 632
15 | CCOc1ccc(-n2c(=O)c3sccc3n(Cc3nc(-c4cccc(OC)c4)no3)c2=O)cc1 | 1000
16 | COc1ccc(N2CCN(c3ccc(-c4nc(-c5ccccc5)no4)cn3)CC2)cc1 | 1240
17 | O=C(NCCC1=CCCCC1)c1cnc(-c2ccccc2)nc1-c1ccncc1 | 966
18 | CCn1c(C2CCN(S(=O)(=O)Cc3ccc(F)cc3Cl)C2)nc2ccncc21 (configuration not stated) | 561
19 | O=C(NC1CCCCC1N1C(=O)CSC1=O)c1ccc(=O)[nH]c1 (configuration not stated) | 583

Row | Compound | RP-LC retention time [s]
20 | COC(=O)c1cnc2nc(C)ccc2c1Nc1ccc(C)c(F)c1 | 696
21 | COc1ccc2oc(-c3csc(NC(=O)c4c(F)cccc4F)n3)cc2c1 | 1010
22 | COc1ccc(NC(=O)Cn2nc3c(Oc4ccccc4C)nccn3c2=O)cc1 | 790
23 | Cc1ccc(-c2nc(-c3ccc(-n4cccn4)nc3)no2)cc1F | 1370
24 | CCCCOc1ccc(NC(=O)c2cc(=O)c3ccc(C)cc3o2)c2cccnc12 | 722
25 | Cc1nc2ccn(Cc3cccnc3)c(=O)c2cc1C(=O)NCc1ccco1 | 575
26 | COc1ccc(Cn2nc3ccc(S(=O)(=O)N4CCOCC4)cn3c2=O)cc1 | 792
27 | Cc1ccnc(N2CCCC(C(=O)NCCCN3CCN(c4cc(Cl)ccc4C)CC3)C2)n1 (configuration not stated) | 670
28 | CSc1ccc(-c2nc3cnccn3c2Nc2ccc(C)cc2Br)cc1 | 1140
29 | O=C(Cn1c(=O)oc2ccccc21)NCc1n[nH]c(=O)c2ccccc12 | 595
30 | COc1ccc(-c2cc(N3CCN(C(=O)c4ccc(Br)o4)CC3)ncn2)cc1 | 591
31 | COc1ccc(-c2cc3c4nnc(SCC(=O)Nc5cccc(Br)c5)n4ccn3n2)cc1 | 1320
32 | COc1ccc(C2Cn3cnc(C(=O)N4CCC(C(=O)NCc5ccco5)CC4)c3CO2)cc1 (configuration not stated) | 698
33 | O=C(Cn1nc2c3cc(-c4ccc(F)cc4)nn3ccn2c1=O)Nc1ccc(F)cc1 | 888
34 | Cc1cc(-c2nnc3sc(COc4ccc(Br)cc4)nn23)n[nH]1 | 786
35 | CN(C)CCNC(=O)c1cccc2[nH]c(-c3ccncc3)nc12 | 556
36 | Cc1ccc(N2CCC(NC(=O)c3ccc(C(F)(F)F)cc3)C2=O)cc1 (configuration not stated) | 953
37 | CCCOC(=O)Cn1c(=O)oc2cc(S(=O)(=O)N3CCN(c4ccccn4)CC3)ccc21 | 703
38 | O=c1oc2cc(S(=O)(=O)NCCO)ccc2c2ccc(S(=O)(=O)NCCO)cc12 | 589

Row | Compound | RP-LC retention time [s]
39 | COc1ccc(-c2cnn3c(C)cc(C)nc23)cc1S(=O)(=O)NCCN(C)C | 616
40 | COCCCNC(=O)CCc1c(-c2ccc(F)cc2)nc2ccccn12 | 592
41 | CCN1CCCn2cc(S(=O)(=O)Nc3ccccc3)cc2C1=O | 666
42 | O=S(=O)(c1cccc(-c2nnc(SC/C=C/c3ccccc3)o2)c1)N1CCOCC1 | 980
43 | CCOC(=O)c1c(S(=O)(=O)N2CCC(C(=O)Nc3cccc(Cl)c3)CC2)c(C)n(CC)c1C | 986
44 | CCOC(=O)c1ccc(NC(=O)C2CCCN(c3nnc4c(Cl)cccn34)C2)cc1 (configuration not stated) | 802
45 | COc1cccc(CNc2ncc(C(=O)O)c(C(C)C)n2)c1 | 851
46 | COc1ccc(OC)c(S(=O)(=O)N2CCc3nn(CC4CC4)c(=O)n3CC2)c1 | 598
47 | CS(=O)(=O)N1CCC(C(=O)N2CCCCC2)Oc2ccc(Cl)cc21 (configuration not stated) | 793
48 | CCOc1ccc(-c2noc(Cn3c(=O)n(CC4CCCO4)c(=O)c4ccccc43)n2)cc1OC (configuration not stated) | 957
49 | CCOC(=O)c1c(C)c(S(=O)(=O)N2CCN(c3ccccn3)CC2)c(C)n1C | 690
50 | Cc1ccc(NS(=O)(=O)c2cc(-c3[nH]ncc3C(=O)N3CCCCC3)oc2C)c(F)c1 | 806
51 | O=C(NC1CC1)c1ccc2ccnc(N3CCN(c4ccc(F)cc4)CC3)c2c1 | 688
52 | CC(NC(=O)Cn1c(=O)c2cccn2c2ccccc21)c1ccc2c(c1)OCCO2 (configuration not stated) | 794
53 | CCOC(=O)C1=C(CN2CCCCC2)NC(=O)NC1c1ccco1 (configuration not stated) | 579
54 | CCOc1ccc(/C=C/C(=O)Nc2nc(-c3ccc(C)cc3)cs2)cc1OC | 1150
55 | Cc1cccc(-n2c(=O)c3sccc3n(Cc3nc(-c4ccc(C(F)(F)F)cc4)no3)c2=O)c1 | 1120
56 | Cc1cccc(NC(=O)N2CCN(c3cnn4c(C5CC5)nnc4c3)CC2)c1 | 647
57 | Cn1c(=O)c(N2CCN(C(=O)c3cc(F)ccc3F)CC2)nc2cccnc21 | 834

Continued, values first:

Row | RP-LC retention time [s] | Compound
58 | 692 | Cc1oc2c(c1C(=O)N1CCN(c3cccc(C(F)(F)F)c3)CC1)C1=NCCN1C=N2
59 | 593 | Cn1cc(CN2CCC(C(=O)NC3CCN(Cc4ccccc4)CC3)CC2)c2cc(Cl)ccc21
60 | 580 | CCn1ccc(C(=O)N2C[C@@H]3CCCN4CCC[C@@H]([C@H]34)[C@H]2CCCC(=O)N2CCOCC2)n1
61 | 669 | Cc1nnc(N2CCC(C(=O)N3CCOCC3)CC2)c2nn(-c3ccc(Cl)cc3)c(C)c12
62 | 691 | Cn1c(N2CCN(C(=O)c3cc4ccccc4[nH]3)CC2)cc(=O)n(C)c1=O
63 | 1120 | Cc1cccc(NC(=O)Cn2nc(N3CCCC(C)C3)c3ccccc3c2=O)c1C (configuration not stated)
64 | 872 | CCN1C(=O)c2cccnc2Sc2cc(NC(=O)COc3ccc(F)cc3)ccc21
65 | 694 | O=S(=O)(c1ccc2c(c1)CCC2)N1CCC(Cc2nc(-c3cccnc3)n[nH]2)C1 (configuration not stated)
66 | 600 | Cc1noc([C@@H]2CN(Cc3ccc(Cl)cc3F)C[C@H]2CO)n1
67 | 747 | O=C(NCCc1csc(-c2ccccc2)n1)[C@H]1CCCN1C(=O)c1ccco1
68 | 733 | CCNC(=O)C1CCN(C(=O)Nc2ccc(NC(=O)Nc3ccc(CC)cc3)cc2)CC1
69 | 755 | Cc1nnc(NC(=O)CN2CCCCC2c2nc(C3CC3)no2)s1 (configuration not stated)
70 | 587 | O=C(NC1CC1)c1cc(=O)[nH]c2ccccc12
71 | 741 | O=C(c1ccco1)N1CCN(C(=O)c2nc(-c3ccc(Cl)cc3)n3c2CCCCC3)CC1
72 | 694 | CN(C)c1cc(C(N)=O)c2ccccc2n1
73 | 917 | O=C(Nc1ccc(N2CCN(C3CCCC3)C2=O)nc1)c1cc(F)cc(F)c1
74 | 981 | COc1ccc(Cl)cc1NC(=O)Nc1ccc2c(c1)N(C)C(=O)C(C)(C)CO2
75 | 1270 | CCOc1ccc(C2Cn3nnc(-c4nc(-c5ccccc5C)no4)c3CO2)cc1 (configuration not stated)
76 | 627 | CCn1nc(C)c(CCNC(=O)Cn2c3ccccc3c3cnn(C)c(=O)c32)c1C
77 | 865 | CNS(=O)(=O)c1cccnc1Nc1ccccc1
78 | 783 | O=C(Nc1ncnc2c1CCC2)c1ccc(S(=O)(=O)N2CCc3ccccc3C2)cc1
79 | 1190 | CCCCCNC(=O)c1sccc1S(=O)(=O)N(C)c1ccc(OCC)cc1
80 | 591 | COc1ccc(N2CCN(C(CNC(=O)C(=O)Nc3ccon3)c3ccco3)CC2)cc1 (configuration not stated)
81 | 713 | O=C(NCC1CCN(C(=O)Nc2ccc(F)cc2)CC1)c1ccccc1Cl
82 | 1090 | CCOc1ccc(NC(=O)c2c(NC(C)=O)sc3c2CCCC3)cc1
83 | 767 | O=C([C@@H]1C[C@H](Oc2ccccc2)CN1C(=O)c1cccs1)N1CCCC1
84 | 902 | CCCN(C(=O)c1c(C)oc2nc(C)nc(N3CCOCC3)c12)c1ccc(OCC)cc1
85 | 717 | Cc1cc(C)n(CC2CCN(C(=O)c3cc4ccccc4[nH]3)CC2)n1
86 | 719 | Cc1cccc(NC(=O)NCC(c2cccnc2)c2cn(C)c3ccccc23)c1C (configuration not stated)
87 | 1350 | CCOc1ccc(-c2nc(NC(=O)Cc3csc(COc4cc(C)ccc4C)n3)sc2C)cc1
